Measured values reported in patent publication US11767286B2, “Phenylpropionate compound, preparation method for same, and applications thereof” (SUZHOU PHARMAVAN CO., LTD, priority 2017, dated 2023).
Read-outs that look alike come from different tables or passages of the source.

Assays:
[1] = system: rats with acute cerebral ischemia-reperfusion; assay: Cerebral infarction area of rats with acute cerebral ischemia-reperfusion (MCAO, suture method); type: in vivo, SD rats; set-up: Cerebral Infarction Area: unit not given here; settings: n=5; for Cerebral Infarction Area: 4 mg/kg iv 2 h after reperfusion (2 h MCAO), sampled 4 h after administration; for inhibition in vivo at 4 mg/kg: Rattus norvegicus, 4 h, 4 mg/kg iv 2 h after reperfusion, vs solvent control, read-out: Percentage of Cerebral Infarction Area Reduction
Experimental: (§1) Trial method: Effects on inflammatory factors and blood viscosity of rats with acute cerebral ischemia-reperfusion: 70 Male SD rats underwent an MACO surgery by a suture method, and after the surgery, alive rats were randomly grouped (into 7 groups, the number of successful animals in each group was guaranteed to be 6 to 8). Blood perfusion was recovered 2 h after MCAO, and corresponding trial medicaments were intravenously injected 2 h after blood reperfusion. 4 hours after the administration, blood was collected and the rats were sacrificed to take out brain tissues. The brain tissues and part of the blood were centrifuged to collect serum which was detected for inflammatory factors, and part of the blood was detected for blood viscosity by using a blood viscometer. Detected indicators: cerebral infarction area; inflammatory factors IL-1β and TNF-α; and blood viscosity.
Table 1 lists results of effects of phenylpropionate compounds (4 mg/kg) on cerebral infarction area of rats with acute cerebral ischemia (n=5).

[2] = system: rats with acute cerebral ischemia-reperfusion; assay: Blood viscosity of rats with acute cerebral ischemia-reperfusion (blood viscometer); type: in vivo, SD rats; set-up: unit not given here; settings: 4 mg/kg iv 2 h after reperfusion; blood 4 h after administration; n=5
Experimental: as §1
Table 2 lists results of effects of phenylpropionate compounds (4 mg/kg) on blood viscosity of rats (n=5).

[3] = system: TNF-α; assay: Inflammatory factor TNF-α in blood and brain tissues of rats with acute cerebral ischemia-reperfusion; type: in vivo, SD rats; settings: 4 mg/kg iv 2 h after reperfusion; 4 h after administration; n=5
Experimental: as §1
(§2) Table 3 lists results of effects of phenylpropionate compounds (4 mg/kg) on inflammatory factors in blood and brain tissues of rats (n=5).

[4] = system: IL-1β; assay: Inflammatory factor IL-1β in blood and brain tissues of rats with acute cerebral ischemia-reperfusion; type: in vivo, SD rats; settings: 4 mg/kg iv 2 h after reperfusion; 4 h after administration; n=5
Experimental: as §1, §2

[5] = system: platelet aggregation induced with ADP; assay: Maximum platelet aggregation rate of rabbits, induced with ADP; type: cell-based; settings: rabbit plasma, 4 mg/kg as printed, n=3; for inhibition at 4 mg/kg: Oryctolagus cuniculus, Platelet
Experimental: (§3) Effects on maximum platelet aggregation rate of rabbits: 3 Rabbits were anesthetized, and blood was collected from the heart to obtain 14 parts of plasma for each rabbit (1 ml per part of plasma). 7 Parts were induced with ADP to allow platelet aggregation, and 7 parts were induced with a platelet activating factor. After the induction, a solvent, positive control drug aspirin, and 5 samples to be trialed were separately added to the plasma, and maximum platelet aggregation rate was detected with a platelet aggregation meter. The trials were repeated 3 times, and an average was taken. Detected indicator: maximum platelet aggregation rate.
(§4) Table 4 lists results of effects of phenylpropionate compounds (4 mg/kg) on platelet aggregation rate of rabbits (n=3).

[6] = system: platelet aggregation induced with a platelet activating factor; assay: Maximum platelet aggregation rate of rabbits, induced with PAF; type: cell-based; settings: rabbit plasma, 4 mg/kg as printed; for inhibition at 4 mg/kg: Oryctolagus cuniculus, Platelet, n=3, read-out: Inhibiton rate on Aggregation; for Maximum Aggregation Rate: n=3
Experimental: as §3, §4

[7] = Distribution in brain: plasma and intracerebral concentrations after intravenous injection; type: in vivo; settings: both sexes, rat, rats, 4 mg/kg iv; for Kp at 10 min / Kp at 60 min / Kp at 180 min: brain/plasma, read-out: Brain/Blood Concentration Ratio
Experimental: In this example, Compounds A to E, D-bornyl ferulate, and D-tanshinol borneol ester were measured for distribution in brain. Structures of D-bornyl ferulate (Patent Application No.: 201510243181.5) and D-tanshinol borneol ester compounds are as follows:
Method for testing distribution in brain: 42 rats with a weight range of 200±20 g were taken. The rats were randomly divided into 7 groups, with 6 rats per group, half male and half female. Rats were fasted with free access to water for 12 h and then intravenously injected with 4 mg/kg of a compound. Rats in the 3 groups were sacrificed through femoral artery bleeding and collected for blood 10 min, 60 min, 180 min after administration, respectively. Brains were taken out, 0.2 g was weighted, and 1 mL of pure water was added for homogenizing. The blood samples and brain homogenate samples were stored at −20° C.
Distribution of Compounds A to E, and D-bornyl ferulate and D-tanshinol borneol ester compounds in brain: Data on concentrations of Compounds A to E, D-bornyl ferulate, and D-tanshinol borneol ester in plasma and intracerebral in rats intravenously injected with 4 mg/kg of Compounds A to E, D-bornyl ferulate, and D-tanshinol borneol ester are listed in Table 9.

[8] = system: SD rat model of focal ischemia-reperfusion; assay: Dose-effect relationship in SD rat model of focal ischemia-reperfusion (MCAO); type: in vivo, SD rats; settings: 4.0 mg/kg, given 2 h after reperfusion, mean ± standard error; for Score of Symptoms of Neurological Deficits: 48 h, modified Bederson 5-point scale; for Infarction area: evaluated after 48 h
Experimental: In this example, phenylpropionate compounds were studied for dose-effect relationship, with D-bornyl ferulate (administrated at 4.0 mg/kg) and D-tanshinol borneol ester (administrated at 4.0 mg/kg) as positive control drugs. Structures of D-bornyl ferulate (Patent Application No.: 201510243181.5) and D-tanshinol borneol ester compounds are as follows:
Trial method: A cerebral ischemia reperfusion model of middle cerebral artery occlusion (MCAO) was prepared by an internal carotid artery suture method. An animal was anesthetized with 10% chloral hydrate (3.6 mL/kg) and then fixed on an operating table in a supine position. Its skin was disinfected, and a midline incision was made on the neck. The right common carotid artery, external carotid artery, and internal carotid artery were separated, the vagus nerve was gently striped off, and the external carotid artery was ligated and cut. The common carotid artery was clamped at the proximal end. […] The nylon thread was advanced through the bifurcation of the common carotid artery into the internal carotid artery, and then was slowly inserted until there was slight resistance (about 20 mm from the bifurcation) to block all the blood supply to the middle cerebral artery. 2 h after cerebral ischemia, the nylon thread was gently pulled out to restore blood supply for reperfusion, and the neck skin was sutured and disinfected. The animal was put back in a cage and raised. During the modeling operation, animals with abnormal conditions due to anesthesia, surgery, etc. were excluded, and successfully modeled animals were randomly grouped. Schemes were set according to different trial doses, and drug treatment was given 2 h after cerebral ischemia-reperfusion. Death conditions were recorded every day after the surgery, and indicators were evaluated after 48 h. In the whole trial process, general conditions were observed, mainly including: death, coma, breathing, urine and feces traits, hair colors, mental status, vomiting and vomitus, bleeding, convulsion, spasm, etc. Abnormal animals due to unexpected factors were excluded. Finally, unblinding was conducted by a person who made blind trials.
Evaluated indicator: (1) Evaluation of symptoms of neurological deficits: The symptoms of neurological deficits were evaluated by using a modified Bederson 5-point scale. A single-blind method was used for evaluating the symptoms of neurological deficits in rats with brain trauma. That is, a trial designer marked animals in accordance with groups, and an experimenter who scored the symptoms of neurological deficits had no knowledge of how the animals were grouped. After scoring was completed, the scorer submitted scoring results for various marks to the designer, and the designer performed unblinding to obtain scores of animals in each trial group. (2) Measurement of cerebral infarction area: A method reported in the literature was used. An animal was anesthetized with 10% chloral hydrate and decapitated to collect brain. The olfactory bulb, cerebellum and lower brain stem were removed. Blood stains on the surface of the brain were rinsed with normal saline, the residual water stains on the surface were absorbed, and the brain was placed at −80° C. for 7 min. After the brain was taken out, a coronal section was immediately made at downwards and vertical to the sight intersection plane, and brain slices were made every 2 mm backwards. Brain slices were placed in a TTC (20 g/L) dye solution prepared with 0.9% normal saline, and incubated at 37° C. for 90 min. Normal brain tissues were stained deep red, and ischemic brain tissues were pale-white. After rinsed with normal saline, the brain sections were quickly arranged in order from front to back, the residual water stains on the surface were absorbed to dryness, and pictures were taken. Image analysis software was used for statistics on the pictures. […]

[9] = brain, read-out: Mean Intracerebral Concentration
[10] = plasma, read-out: Mean Plasma Concentration

SMILES	Cerebral Infarction Area [1]	inhibition in vivo at 4 mg/kg [1]	Blood viscosity, High Shear [2]	Blood viscosity, Low Shear [2]	TNF-α [3]	IL-1β [4]	inhibition at 4 mg/kg [5]	Maximum Aggregation Rate [5]	inhibition at 4 mg/kg [6]	Maximum Aggregation Rate [6]	Kp at 10 min [7]	Kp at 60 min [7]	Kp at 180 min [7]	concentration at 10 min [7, 9]	concentration at 60 min [7, 9]	concentration at 180 min [7, 9]	concentration at 10 min [7, 10]	concentration at 60 min [7, 10]	concentration at 180 min [7, 10]	Score of Symptoms of Neurological Deficits [8]	other results
CC(=O)Oc1ccccc1C(=O)O [Aspirin, aspirin, reference compound]	22.7 ± 4.05	38%	2.64 ± 0.199	12.2 ± 0.742	647 ± 45.2 ng/L	62.9 ± 11.5 ng/L	54.1%	14.8 ± 3.99 %	40.8%	41.3 ± 1.53 %	–	–	–	–	–	–	–	–	–	–	–
COc1cc(CCC(=O)O[C@H]2C[C@H]3CC[C@]2(C)C3(C)C)cc(O)c1O [Compound B]	18.7 ± 7.16	49%	2.73 ± 0.122	13.9 ± 0.134	645 ± 42.3 ng/L	63.4 ± 5.6 ng/L	46.8%	17.5 ± 2.84 %	55%	32.1 ± 9.7 %	1.6	4.5	1.8	2490 ± 437 ng/g	1270 ± 234 ng/g	247 ± 87.5 ng/g	1530 ± 581 ng/mL	285 ± 105 ng/mL	136 ± 60.4 ng/mL	–	–
COc1cc(CCC(=O)O[C@H]2C[C@H]3CC[C@]2(C)C3(C)C)c(Br)cc1O [Compound D]	19.4 ± 4.61	47.1%	2.63 ± 0.312	13.3 ± 0.354	562 ± 34.2 ng/L	53.4 ± 8.9 ng/L	55.3%	14.7 ± 7.42 %	34.6%	46.7 ± 9.8 %	1.6	4.6	4	2260 ± 323 ng/g	1430 ± 285 ng/g	485 ± 125 ng/g	1400 ± 236 ng/mL	312 ± 115 ng/mL	120 ± 22.7 ng/mL	–	–
CC1(C)[C@@H]2CC[C@@]1(C)[C@@H](OC(=O)CCc1ccc(O)c(OC(F)(F)F)c1)C2 [Compound E]	19.8 ± 3.61	46%	2.73 ± 0.405	13.5 ± 1.183	573 ± 43.0 ng/L	64.3 ± 8.1 ng/L	46.2%	17.7 ± 5.46 %	39.1%	43.5 ± 8.4 %	3.4	3.5	3.7	3020 ± 527 ng/g	959 ± 337 ng/g	314 ± 56.6 ng/g	887 ± 222 ng/mL	274 ± 102 ng/mL	84.6 ± 42.3 ng/mL	–	–
COc1cc(/C=C/C(=O)O[C@H]2C[C@H]3CC[C@]2(C)C3(C)C)ccc1O [D-bornyl ferulate, reference compound]	21.7 ± 4.35	40.9%	2.84 ± 0.323	13.8 ± 0.574	658 ± 23.6 ng/L	64.8 ± 5.8 ng/L	46.5%	17.6 ± 4.59 %	36.4%	45.4 ± 2.64 %	0.52	5	5.8	1490 ± 219 ng/g	701 ± 136 ng/g	276 ± 81.3 ng/g	2890 ± 671 ng/mL	138 ± 55 ng/mL	47.1 ± 21.6 ng/mL	1.94 ± 0.19	Infarction area [8]: 21.68 ± 2.80 %
CC1(C)[C@@H]2CC[C@@]1(C)[C@@H](OC(=O)[C@H](O)Cc1ccc(O)c(O)c1)C2 [D-tanshinol borneol ester, reference compound]	25.6 ± 4.65	30.2%	2.76 ± 0.134	14.1 ± 0.658	687 ± 35.4 ng/L	67.1 ± 8.8 ng/L	43.8%	18.5 ± 4.36 %	33.8%	47.3 ± 4.53 %	0.47	2.6	3.4	1040 ± 168 ng/g	644 ± 99.7 ng/g	177 ± 35.2 ng/g	2210 ± 546 ng/mL	244 ± 62.4 ng/mL	52.8 ± 34.1 ng/mL	1.98 ± 0.17	Infarction area [8]: 22.76 ± 2.42 %
